Paper PMC12169475 (ACS Medicinal Chemistry Letters, 2025)
Like-named read-outs stand apart in the source and are kept apart here. Ends that are not written are not given here.

Tests used:
[1] = test system: A. baumannii NICD 15283 (C); set-up: key: S - Susceptible; R - Resistant; I – Intermediate; settings: A. baumannii NICD 15283 clinical isolate; ref NICD; cited from earlier work
[2] = test system: E. cloacae NICD 16103 (C); set-up: key: S - Susceptible; R - Resistant; I – Intermediate; settings: E. cloacae NICD 16103 clinical isolate; ref NICD; cited from earlier work
E. cloacae NICD 16103 = type: cell-based, Enterobacter cloacae; settings: then MIC 20 h 37°C; for MIC after trypsin treatment: trypsin 0.15 U/mL pH 7.4 (picture: 1 mM), 1 h 37°C, inactivated 60°C 20 min
HaCat cells [3] = settings: previously reported, ref Van der Walt et al.; cited from earlier work
Experimental: The toxicity of the analogues was assessed against HaCat cells, which serve as a relevant model for the intended topical application of these peptides in burn wound care.

mammalian erythrocytes = settings: previously reported, ref Van der Walt et al.; cited from earlier work
HepG2 cells = settings: previously reported, ref Van der Walt et al.; cited from earlier work
E. coli ATCC 25922 = settings: for Modal MIC: E. coli ATCC 25922, cation-adjusted MHB, ~5 x 10^5 CFU/mL, 37°C 20 h, OD600, triplicate experiments in duplicate (n = 6); for Selectivity index (HaCat LC50 / MIC): E. coli ATCC 25922 over HaCat cells
Experimental: (§1) Antibacterial activity against a panel of standard laboratory strains and clinical isolates.
(§2) Antimicrobial activity was evaluated against a panel of Gram-negative bacteria maintained by H3D, University of Cape Town, consisting of six laboratory reference strains and two clinical isolates. Briefly, bacterial colonies from an LB agar plate were picked and cultured in cation-adjusted Mueller Hinton broth (MHB) at 37°C with 180 rpm shaking, overnight. Cultures were […]
(§3) back diluted to reach a starting optical density at 600 nm (OD600) of 0.1 and then diluted 100- […]
(§4) media down polypropylene 96-well plates. Inoculum was added at a 1:1 ratio resulting in a […]
(§5) (Suppl. Table S2). Plates were incubated at 37°C for 20 h and the OD600 determined. Minimum inhibition concentrations (MICs) were determined from a minimum of three biological repeats. […]
(§6) the background absorbance.
(§7) Caution! All bacterial work was conducted using appropriate biosafety level 2 (BSL-2) practices.

A. baumannii ATCC 19606 = settings: for Modal MIC: A. baumannii ATCC 19606, cation-adjusted MHB, ~5 x 10^5 CFU/mL, 37°C 20 h, OD600, n = 6; for Selectivity index (HaCat LC50 / MIC): A. baumannii ATCC 19606 over HaCat cells
Experimental: as §1, §2, §3, §4, §5, §6, §7
(§8) Clinical isolates and reference strains were handled in a biosafety cabinet with proper PPE to prevent exposure and contamination.

[4] = test system: A. baumannii NICD 15283 (C); settings: for Selectivity index (HaCat LC50 / MIC): A. baumannii NICD 15283 clinical isolate over HaCat cells; for Modal MIC: A. baumannii NICD 15283 clinical isolate, cation-adjusted MHB, ~5 x 10^5 CFU/mL, 37°C 20 h, OD600, n = 6
Experimental: as §1, §2, §3, §4, §5, §6, §7, §8

E. cloacae ATCC 700323 = settings: for Modal MIC: E. cloacae ATCC 700323, cation-adjusted MHB, ~5 x 10^5 CFU/mL, 37°C 20 h, OD600, n = 6; for Selectivity index (HaCat LC50 / MIC): E. cloacae ATCC 700323 over HaCat cells
Experimental: as §1, §2, §3, §4, §5, §6, §7, §8

[5] = test system: E. cloacae NICD 16103 (C); settings: for Selectivity index (HaCat LC50 / MIC): E. cloacae NICD 16103 clinical isolate over HaCat cells; for Modal MIC: E. cloacae NICD 16103 clinical isolate, cation-adjusted MHB, ~5 x 10^5 CFU/mL, 37°C 20 h, OD600, n = 6
Experimental: as §1, §2, §3, §4, §5, §6, §7, §8

[6] = test system: K. pneumoniae ATCC BAA-1705; settings: for Modal MIC: K. pneumoniae ATCC BAA-1705, cation-adjusted MHB, ~5 x 10^5 CFU/mL, 37°C 20 h, OD600, n = 6; for Selectivity index (HaCat LC50 / MIC): K. pneumoniae ATCC BAA-1705 over HaCat cells
Experimental: as §1, §2, §3, §4, §5, §6, §7, §8

P. aeruginosa PAO1 = settings: for Modal MIC: P. aeruginosa PAO1, cation-adjusted MHB, ~5 x 10^5 CFU/mL, 37°C 20 h, OD600, n = 6; for Selectivity index (HaCat LC50 / MIC): P. aeruginosa PAO1 over HaCat cells
Experimental: as §1, §2, §3, §4, §5, §6, §7, §8

HaCat cells [7] = assay: In vitro cytotoxicity screening against epidermal HaCat cells (MTT); settings: 24 h exposure in total (21 h + 3 h MTT), OD570, three independent experiments in duplicate (n = 6)
E. coli ATCC 700928 = settings: for Modal MIC: E. coli ATCC 700928, cation-adjusted MHB, ~5 x 10^5 CFU/mL, 37°C 20 h, OD600, n = 6; for Selectivity index (HaCat LC50 / MIC): E. coli ATCC 700928 over HaCat cells
Experimental: as §1, §2, §3, §4, §5, §6, §7, §8

Compound	Modal MIC (E. coli ATCC 25922)	Modal MIC (A. baumannii ATCC 19606) [µg/mL]	Selectivity index (HaCat LC50 / MIC) (A. baumannii ATCC 19606)	Selectivity index (HaCat LC50 / MIC) [4]	Modal MIC [4] [µg/mL]	Modal MIC (E. cloacae ATCC 700323)	Selectivity index (HaCat LC50 / MIC) (E. cloacae ATCC 700323)	Selectivity index (HaCat LC50 / MIC) [5]	Modal MIC [5]	Modal MIC [6] [µg/mL]	Selectivity index (HaCat LC50 / MIC) [6]	Modal MIC (P. aeruginosa PAO1) [µg/mL]	Selectivity index (HaCat LC50 / MIC) (P. aeruginosa PAO1)	HaCat toxicity LC50 + SD (HaCat cells [7]) [µg/mL]	Selectivity index (HaCat LC50 / MIC) (E. coli ATCC 25922)	Modal MIC (E. coli ATCC 700928) [µg/mL]	Selectivity index (HaCat LC50 / MIC) (E. coli ATCC 700928)	other results
CN(C)[C@@H]1C(O)=C(C(N)=O)C(=O)[C@@]2(O)C(O)=C3C(=O)c4c(O)cccc4[C@@](C)(O)[C@H]3C[C@@H]12 [Tetracycline]	–	–	–	–	–	–	–	–	–	–	–	–	–	–	–	–	–	Antimicrobial susceptibility profile [1]: R; Antimicrobial susceptibility profile [2]: R
NC[C@H]1O[C@H](O[C@H]2[C@H](O)[C@@H](O[C@H]3O[C@H](CO)[C@@H](O)[C@H](N)[C@H]3O)[C@H](N)C[C@@H]2N)[C@H](N)C[C@@H]1O [Tobramycin]	–	–	–	–	–	–	–	–	–	–	–	–	–	–	–	–	–	Antimicrobial susceptibility profile [1]: R; Antimicrobial susceptibility profile [2]: R
GKVWDWIKSTAKKLWN-NH2 [Opis16a]	–	–	–	–	–	–	–	–	–	–	–	–	–	–	–	–	–	MIC in FCS (20%) (E. cloacae NICD 16103; peptide preincubated in 20% FCS 1 h at 37°C): 64 µg/mL; MIC after trypsin treatment (E. cloacae NICD 16103): > 32 µg/mL; HaCat toxicity LC50 + SD (HaCat cells [3]): 311 ± 12 µg/mL; HC50 (mammalian erythrocytes): > 256 µg/mL; LC50 (HepG2 cells): 118 ± 8 µg/mL
GKVWKWIKSTAKKLWN-NH2 [Opis16aD5K]	16 µg/mL	8	18.5	18.5	8	16 µg/mL	9.27	18.5	8 µg/mL	16	9.27	8	18.5	148 ± 6	–	–	–	–
GKVWKWIKSTARRLWN-NH2 [Opis16aCterKR]	8 (8×) μg/mL	4	45.2	22.6	8	8 (8×) μg/mL	22.6	45.2	4 (4×) μg/mL	8	22.6	4	45.2	181 ± 8	22.6	4	45.2	MIC after trypsin treatment (E. cloacae NICD 16103): > 32 µg/mL
GRVWRWIKSTAKKLWN-NH2 [Opis16aNterKR]	8 (8×) μg/mL	4	34.6	17.3	8	16 µg/mL	8.64	17.3	8 µg/mL	16	8.64	4	34.6	138 ± 14	17.3	4	34.6	–
GRVWRWIRSTARRLWN-NH2 [Opis16aKR]	8 (8×) μg/mL	4	32.9	16.4	8	8 (8×) μg/mL	–	32.9	4 (4×) μg/mL	16	8.21	4	32.9	131 ± 5	16.4	4	32.9	–
Polymyxin B [reference compound]	0.25 µg/mL	1	–	–	1	0.25 µg/mL	–	–	–	0.5	–	–	–	–	–	0.5	–	–
